Values quoted from earlier work as cited in patent US20030216337A1, “Composition and imaging methods for pharmacokinetic and pharmacodynamic evaluation of therapeutic delivery system” (priority 2002, published 2003).

Structure (SMILES): O=c1[nH]c(=O)n([C@H]2C[C@H](O)[C@@H](CO)O2)cc1I [IUdR, 5-Iodo-2′-deoxyuridine]
- half-life (in humans, unincorporated IUdR / resulting compound): less than minutes
- catabolism of unincorporated IUdR (unincorporated into DNA): rapidly catabolized to iodouracil and/or dehalogenated
